Measurements as given in the supplement of paper PMC10307832.

Experiments:
Assay in all cases: relative viability (nuclei count vs DMSO), 5 days (fraction); higher = more cells survive
BEN = system: BEN
How it was run: (§1)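 Cells from lung cancer lines were seeded into 1536-well plates and, one day later, dosed by pin tool. Treatments were either a single drug or a fixed dose of an anchor drug with five library-drug doses (not always all listed) in √10 steps. After 5 days, nuclei were stained in a one-step fixation (final 0.05% Triton X-100, 1% formaldehyde, 1 ug/ml Hoechst) and counted on 4× images, and relative viability is the treated-to-vehicle nuclei ratio, as the median of duplicate plates.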

ChaGo-K-1 = system: ChaGo-K-1
How it was run: as §1

HCC-78 = system: HCC-78
How it was run: as §1

LC-2-ad = system: LC-2-ad
How it was run: as §1

LCLC-97TM1 = system: LCLC-97TM1
How it was run: as §1

LK-2 = system: LK-2
How it was run: as §1

LU99A = system: LU99A
How it was run: as §1

LXF-289 = system: LXF-289
How it was run: as §1

NCI-H1355 = system: NCI-H1355
How it was run: as §1

NCI-H1651 = system: NCI-H1651
How it was run: as §1

NCI-H1666 = system: NCI-H1666
How it was run: as §1

NCI-H1944 = system: NCI-H1944
How it was run: as §1

NCI-H1975 = system: NCI-H1975
How it was run: as §1

NCI-H2087 = system: NCI-H2087
How it was run: as §1

NCI-H2342 = system: NCI-H2342
How it was run: as §1

NCI-H358 = system: NCI-H358
How it was run: as §1

NCI-H596 = system: NCI-H596
How it was run: as §1

NCI-H650 = system: NCI-H650
How it was run: as §1

NCI-H661 = system: NCI-H661
How it was run: as §1

NCI-H838 = system: NCI-H838
How it was run: as §1

PC-3 [JPC-3] = system: PC-3 [JPC-3]
How it was run: as §1

SK-MES-1 = system: SK-MES-1
How it was run: as §1

O=c1cc(-c2cccc3c2Sc2ccccc2S3)oc(N2CCOCC2)c1 + Nc1nc2[nH]cc(CCc3ccc(C(=O)N[C@@H](CCC(=O)O)C(=O)O)cc3)c2c(=O)[nH]1 [Pemetrexed] (partner 0.2 µM)
relative viability (BEN; first compound 0.08 µM): 0.72 | relative viability (BEN; first compound 0.253 µM): 0.834 | relative viability (BEN; first compound 0.8 µM): 0.696 | relative viability (BEN; first compound 2.53 µM): 0.801 | relative viability (BEN; first compound 8 µM): 1.07 | relative viability (ChaGo-K-1; first compound 0.08 µM): 0.251 | relative viability (ChaGo-K-1; first compound 0.253 µM): 0.264 | relative viability (ChaGo-K-1; first compound 0.8 µM): 0.248 | relative viability (ChaGo-K-1; first compound 2.53 µM): 0.287 | relative viability (ChaGo-K-1; first compound 8 µM): 0.273 | relative viability (HCC-78; first compound 0.08 µM): 0.914 | relative viability (HCC-78; first compound 0.253 µM): 0.943 | relative viability (HCC-78; first compound 0.8 µM): 0.946 | relative viability (HCC-78; first compound 2.53 µM): 0.882 | relative viability (HCC-78; first compound 8 µM): 0.928 | relative viability (LC-2-ad; first compound 0.08 µM): 0.284 | relative viability (LC-2-ad; first compound 0.253 µM): 0.252 | relative viability (LC-2-ad; first compound 0.8 µM): 0.285 | relative viability (LC-2-ad; first compound 2.53 µM): 0.271 | relative viability (LC-2-ad; first compound 8 µM): 0.27 | relative viability (LCLC-97TM1; first compound 0.08 µM): 0.175 | relative viability (LCLC-97TM1; first compound 0.253 µM): 0.169 | relative viability (LCLC-97TM1; first compound 0.8 µM): 0.18 | relative viability (LCLC-97TM1; first compound 2.53 µM): 0.177 | relative viability (LCLC-97TM1; first compound 8 µM): 0.175 | relative viability (LK-2; first compound 0.08 µM): 0.312 | relative viability (LK-2; first compound 0.253 µM): 0.297 | relative viability (LK-2; first compound 0.8 µM): 0.224 | relative viability (LK-2; first compound 2.53 µM): 0.256 | relative viability (LK-2; first compound 8 µM): 0.284 | relative viability (LU99A; first compound 0.08 µM): 0.201 | relative viability (LU99A; first compound 0.253 µM): 0.169 | relative viability (LU99A; first compound 0.8 µM): 0.184 | relative viability (LU99A; first compound 2.53 µM): 0.324 | relative viability (LU99A; first compound 8 µM): 0.187 | relative viability (LXF-289; first compound 0.08 µM): 0.95 | relative viability (LXF-289; first compound 0.253 µM): 0.96 | relative viability (LXF-289; first compound 0.8 µM): 0.975 | relative viability (LXF-289; first compound 2.53 µM): 0.93 | relative viability (LXF-289; first compound 8 µM): 1.03 | relative viability (NCI-H1355; first compound 0.08 µM): 1.11 | relative viability (NCI-H1355; first compound 0.253 µM): 1.15 | relative viability (NCI-H1355; first compound 0.8 µM): 0.898 | relative viability (NCI-H1355; first compound 2.53 µM): 0.995 | relative viability (NCI-H1355; first compound 8 µM): 1.06 | relative viability (NCI-H1651; first compound 0.08 µM): 0.563 | relative viability (NCI-H1651; first compound 0.253 µM): 0.636 | relative viability (NCI-H1651; first compound 0.8 µM): 0.604 | relative viability (NCI-H1651; first compound 2.53 µM): 0.589 | relative viability (NCI-H1651; first compound 8 µM): 0.603 | relative viability (NCI-H1666; first compound 0.08 µM): 0.844 | relative viability (NCI-H1666; first compound 0.253 µM): 0.913 | relative viability (NCI-H1666; first compound 0.8 µM): 0.762 | relative viability (NCI-H1666; first compound 2.53 µM): 0.758 | relative viability (NCI-H1666; first compound 8 µM): 0.793 | relative viability (NCI-H1944; first compound 0.08 µM): 0.642 | relative viability (NCI-H1944; first compound 0.253 µM): 0.518 | relative viability (NCI-H1944; first compound 0.8 µM): 0.636 | relative viability (NCI-H1944; first compound 2.53 µM): 0.516 | relative viability (NCI-H1944; first compound 8 µM): 0.698 | relative viability (NCI-H1975; first compound 0.08 µM): 0.318 | relative viability (NCI-H1975; first compound 0.253 µM): 0.29 | relative viability (NCI-H1975; first compound 0.8 µM): 0.313 | relative viability (NCI-H1975; first compound 2.53 µM): 0.287 | relative viability (NCI-H1975; first compound 8 µM): 0.288 | relative viability (NCI-H2087; first compound 0.08 µM): 0.669 | relative viability (NCI-H2087; first compound 0.253 µM): 0.662 | relative viability (NCI-H2087; first compound 0.8 µM): 0.726 | relative viability (NCI-H2087; first compound 2.53 µM): 0.649 | relative viability (NCI-H2087; first compound 8 µM): 0.674 | relative viability (NCI-H2342; first compound 0.08 µM): 0.703 | relative viability (NCI-H2342; first compound 0.253 µM): 0.817 | relative viability (NCI-H2342; first compound 0.8 µM): 0.718 | relative viability (NCI-H2342; first compound 2.53 µM): 0.725 | relative viability (NCI-H2342; first compound 8 µM): 0.848 | relative viability (NCI-H358; first compound 0.08 µM): 0.161 | relative viability (NCI-H358; first compound 0.253 µM): 0.188 | relative viability (NCI-H358; first compound 0.8 µM): 0.183 | relative viability (NCI-H358; first compound 2.53 µM): 0.176 | relative viability (NCI-H358; first compound 8 µM): 0.175 | relative viability (NCI-H596; first compound 0.08 µM): 0.422 | relative viability (NCI-H596; first compound 0.253 µM): 0.52 | relative viability (NCI-H596; first compound 0.8 µM): 0.536 | relative viability (NCI-H596; first compound 2.53 µM): 0.543 | relative viability (NCI-H596; first compound 8 µM): 0.478 | relative viability (NCI-H650; first compound 0.08 µM): 0.917 | relative viability (NCI-H650; first compound 0.253 µM): 0.964 | relative viability (NCI-H650; first compound 0.8 µM): 0.878 | relative viability (NCI-H650; first compound 2.53 µM): 0.74 | relative viability (NCI-H650; first compound 8 µM): 0.866 | relative viability (NCI-H661; first compound 0.08 µM): 0.9 | relative viability (NCI-H661; first compound 0.253 µM): 0.942 | relative viability (NCI-H661; first compound 0.8 µM): 0.962 | relative viability (NCI-H661; first compound 2.53 µM): 0.874 | relative viability (NCI-H661; first compound 8 µM): 0.899 | relative viability (NCI-H838; first compound 0.08 µM): 0.266 | relative viability (NCI-H838; first compound 0.253 µM): 0.245 | relative viability (NCI-H838; first compound 0.8 µM): 0.249 | relative viability (NCI-H838; first compound 2.53 µM): 0.226 | relative viability (NCI-H838; first compound 8 µM): 0.226 | relative viability (PC-3 [JPC-3]; first compound 0.08 µM): 0.721 | relative viability (PC-3 [JPC-3]; first compound 0.253 µM): 1.11 | relative viability (PC-3 [JPC-3]; first compound 0.8 µM): 1.3 | relative viability (PC-3 [JPC-3]; first compound 2.53 µM): 0.996 | relative viability (PC-3 [JPC-3]; first compound 8 µM): 1.08 | relative viability (SK-MES-1; first compound 0.08 µM): 1.07 | relative viability (SK-MES-1; first compound 0.253 µM): 1.07 | relative viability (SK-MES-1; first compound 0.8 µM): 0.838 | relative viability (SK-MES-1; first compound 2.53 µM): 0.792 | relative viability (SK-MES-1; first compound 8 µM): 0.833
